Data taken from patent US20260184710A1, “CASITAS B-LINEAGE LYMPHOMA PROTOONCOGENE B (CBL-B) DEGRADING COMPOUNDS AND ASSOCIATED METHODS OF USE” (Arvinas Operations, Inc., priority 2022, published 2026).

Target: T1, Cbl-b (Homo sapiens, UniProt Q13191)
T1 construct: Cbl-b-HiBit KI Jurkat Cells were purchased from Promega; host or cells: Cbl-b-HiBiT knock-in Jurkat cells
Experiment: Cbl-b Degradation Method B (Nano-Glo HiBiT lytic detection)
Format: cell-based
Conditions: Cbl-b-HiBit KI Jurkat Cells, incubated at least 6-24 hours; for DC50: half maximal degradation, read-out: Cbl-b Degredation Method B IC50; for Dmax: maximum degradation observed, read-out: Cbl-b Degredation Method B Dmax (%)
Summary of the method: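 Cbl-b-HiBiT knock-in Jurkat cells (20,000/well) were treated after ~24 h plating with an 11-point 1:3 series for 6-24 h at 37° C. Remaining Cbl-b measured by Nano-Glo HiBiT lytic luminescence. DC50 and Dmax expressed as % of control.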

T1 sequence (Q13191 whole entry): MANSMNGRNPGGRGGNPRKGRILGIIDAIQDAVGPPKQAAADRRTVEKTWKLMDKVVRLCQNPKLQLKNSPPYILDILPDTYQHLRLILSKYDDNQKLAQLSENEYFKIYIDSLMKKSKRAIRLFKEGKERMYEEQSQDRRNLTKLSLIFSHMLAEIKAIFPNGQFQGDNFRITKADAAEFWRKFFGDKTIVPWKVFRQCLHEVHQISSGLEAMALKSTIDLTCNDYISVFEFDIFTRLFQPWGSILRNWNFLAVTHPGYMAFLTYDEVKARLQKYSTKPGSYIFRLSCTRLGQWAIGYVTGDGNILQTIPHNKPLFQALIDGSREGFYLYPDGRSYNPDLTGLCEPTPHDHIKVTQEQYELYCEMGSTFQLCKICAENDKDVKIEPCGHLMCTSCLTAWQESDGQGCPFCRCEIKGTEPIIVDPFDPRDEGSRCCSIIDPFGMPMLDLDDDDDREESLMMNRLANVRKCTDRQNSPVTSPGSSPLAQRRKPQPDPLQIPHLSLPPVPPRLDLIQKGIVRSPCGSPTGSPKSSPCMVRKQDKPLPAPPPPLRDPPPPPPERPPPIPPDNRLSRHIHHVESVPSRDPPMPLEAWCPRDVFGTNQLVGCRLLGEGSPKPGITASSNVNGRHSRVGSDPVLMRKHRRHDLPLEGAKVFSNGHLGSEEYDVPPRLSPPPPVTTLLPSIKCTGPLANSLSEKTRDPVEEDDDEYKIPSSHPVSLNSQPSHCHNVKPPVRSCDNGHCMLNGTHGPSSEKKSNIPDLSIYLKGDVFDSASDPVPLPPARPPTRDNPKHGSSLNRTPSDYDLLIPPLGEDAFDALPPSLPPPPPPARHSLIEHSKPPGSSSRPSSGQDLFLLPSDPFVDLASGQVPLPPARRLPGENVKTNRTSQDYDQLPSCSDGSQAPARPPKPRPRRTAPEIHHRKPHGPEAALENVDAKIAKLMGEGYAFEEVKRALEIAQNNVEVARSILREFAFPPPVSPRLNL

For `Cn1cnnc1CC1(c2cccc(N3Cc4c(cc(CN5CCC(C6CCN(c7ccc8c(c7)C(=O)N(C7CCC(=O)NC7=O)C8=O)CC6)CC5)cc4C(F)(F)F)C3=O)c2)COC1` (stereo not drawn) [Example 26, 2-(2,6-dioxopiperidin-3-yl)-5-(1′-{[2-(3-{3-[(4-methyl-4H-1,2,4-triazol-3-yl)methyl]oxetan-3-yl}phenyl)-3-oxo-7-(trifluoromethyl)-2,3-dihydro-1H-isoindol-5-yl]methyl}-[4,4′-bipiperidin]-1-yl)-2,3-dihydro-1H-isoindole-1,3-dione], which DC50 is on record?
The DC50 was > 500 nM.

Which DC50 does the source give for `Cc1cc(N2C[C@H]3C[C@@H]2CN3CC2CCC3(CC2)CN(c2cc4c(c(C(F)(F)F)c2)CN(c2cccc([C@]5(Cc6nncn6C)C[C@@H](C#N)C5)c2)C4=O)C3)c(F)c2c1C(=O)N(C1CCC(=O)NC1=O)C2` (stereo partly drawn) [Example 150, 3-[3-[6-[7-[[(1R,4R)-5-[2-(2,6-dioxo-3-piperidyl)-4-fluoro-7-methyl-1-oxo-isoindolin-5-yl]-2,5-diazabicyclo [2.2.1]heptan-2-yl]methyl]-2-azaspiro [3.5]nonan-2-yl]-1-oxo-4-(trifluoromethyl)isoindolin-2-yl]phenyl]-3-[(4-methyl-1,2,4-triazol-3-yl)methyl]cyclobutanecarbonitrile] here?
The DC50 was > 500 nM.

How did the DC50 turn out when `Cn1cnnc1CC1(c2cccc(N3Cc4c(cc(CN5CCC[C@H](CN6CC[C@@H](OC7CCN(c8ccc9c(c8F)CN(C8CCC(=O)NC8=O)C9=O)CC7)CC6(C)C)C5)cc4C(F)(F)F)C3=O)c2)CC(C#N)C1` (single isomer, unassigned) [Example 291, (1r**,3r**)-3-[3-(6-{[(3S)-3-{[(4R*)-4-({1-[2-(2,6-dioxopiperidin-3-yl)-4-fluoro-1-oxo-2,3-dihydro-1H-isoindol-5-yl]piperidin-4-yl}oxy)-2,2-dimethylpiperidin-1-yl]methyl}piperidin-1-yl]methyl}-1-oxo-4-(trifluoromethyl)-2,3-dihydro-1H-isoindol-2-yl)phenyl]-3-[(4-methyl-4H-1,2,4-triazol-3-yl)methyl]cyclobutane-1-carbonitrile] was run?
Its DC50 is > 500 nM.

How did the DC50 turn out when `Cn1cnnc1C[C@]1(c2cccc(N3Cc4c(cc(CN5CCN(C[C@H]6CC[C@H](OC7CCN(c8ccc(C9CCC(=O)NC9=O)c(F)c8)CC7)CC6)CC5)cc4C(F)(F)F)C3=O)c2)C[C@H](C#N)C1` (stereo partly drawn) [Example 201, (1r,3r)-3-[(4-methyl-4H-1,2,4-triazol-3-yl)methyl]-3-(3-{1-oxo-6-[(4-{[(1r,4r)-4-({1-[4-(2,6-dioxopiperidin-3-yl)-3-fluorophenyl]piperidin-4-yl}oxy)cyclohexyl]methyl}piperazin-1-yl)methyl]-4-(trifluoromethyl)-2,3-dihydro-1H-isoindol-2-yl}phenyl)cyclobutane-1-carbonitrile] was run?
The DC50 was > 500 nM.

How did the DC50 turn out when `CC(C)n1c(=O)n(C2CCC(=O)NC2=O)c2cccc(N3CCC(CN4CCN(C[C@H]5CCCN(Cc6cc7c(c(C(F)(F)F)c6)CN(c6cccc(C8(Cc9nncn9C)CC(C#N)C8)c6)C7=O)C5)C(C)(C)C4)CC3)c21` (stereo partly drawn) [Example 288, (1r*,3r*)-3-[3-(6-{[(3S)-3-{[4-({1-[1-(2,6-dioxopiperidin-3-yl)-2-oxo-3-(propan-2-yl)-2,3-dihydro-1H-1,3-benzodiazol-4-yl]piperidin-4-yl}methyl)-2,2-dimethylpiperazin-1-yl]methyl}piperidin-1-yl]methyl}-1-oxo-4-(trifluoromethyl)-2,3-dihydro-1H-isoindol-2-yl)phenyl]-3-[(4-methyl-4H-1,2,4-triazol-3-yl)methyl]cyclobutane-1-carbonitrile] was run?
Its DC50 is > 500 nM.

`CC1c2nc(N3CCC(OC4CCC(CN5CC6CCC(C5)N6c5cc6c(c(C(F)(F)F)c5)CN(c5cccc(C7(Cc8nncn8C)CC(C#N)C7)c5)C6=O)CC4)CC3)ccc2C(=O)N1C1CCC(=O)NC1=O` (stereo not drawn) [Example 183, (1r,3r)-3-[(4-methyl-4H-1,2,4-triazol-3-yl)methyl]-3-{3-[1-oxo-6-(3-{[(1r,4r)-4-({1-[6-(2,6-dioxopiperidin-3-yl)-7-methyl-5-oxo-5H,6H,7H-pyrrolo[3,4-b]pyridin-2-yl]piperidin-4-yl}oxy)cyclohexyl]methyl}-3,8-diazabicyclo[3.2.1]octan-8-yl)-4-(trifluoromethyl)-2,3-dihydro-1H-isoindol-2-yl]phenyl}cyclobutane-1-carbonitrile] was tested. Which DC50 did it give?
The DC50 was 5 to 50 nM.

What about the Dmax of the same compound?
The Dmax was < 35%.

How did the DC50 turn out when `Cn1cnnc1CC1(c2cccc(N3Cc4c(cc(CN5CC(C6CN(c7ccc(Oc8ccc9c(c8)C(=O)N(C8CCC(=O)NC8=O)C9=O)cc7)C6)C5)cc4C(F)(F)F)C3=O)c2)COC1` (stereo not drawn) [Example 64, 2-(2,6-dioxopiperidin-3-yl)-5-[4-(1′-{[2-(3-{3-[(4-methyl-4H-1,2,4-triazol-3-yl)methyl]oxetan-3-yl}phenyl)-3-oxo-7-(trifluoromethyl)-2,3-dihydro-1H-isoindol-5-yl]methyl}-[3,3′-biazetidin]-1-yl)phenoxy]-2,3-dihydro-1H-isoindole-1,3-dione] was run?
Its DC50 is > 500 nM.

Which results are given for `CC1c2nc(N3CCC(O[C@H]4CC[C@H](CN5CCN(Cc6cc(C(F)(F)F)c7cn(-c8cccc(C9(Cc%10nncn%10C)CC(C#N)C9)c8)nc7c6)C(C)(C)C5)CC4)CC3)ccc2C(=O)N1C1CCC(=O)NC1=O` (stereo partly drawn) [Example 252, (1r**,3r**)-3-(3-{6-[(2,2-dimethyl-4-{[(1r*,4r*)-4-({1-[6-(2,6-dioxopiperidin-3-yl)-7-methyl-5-oxo-5H,6H,7H-pyrrolo[3,4-b]pyridin-2-yl]piperidin-4-yl}oxy)cyclohexyl]methyl}piperazin-1-yl)methyl]-4-(trifluoromethyl)-2H-indazol-2-yl}phenyl)-3-[(4-methyl-4H-1,2,4-triazol-3-yl)methyl]cyclobutane-1-carbonitrile]?
DC50: 5 to 50 nM; Dmax: 35 to 70%

For `Cn1cnnc1CC1(c2cccc(N3Cc4c(cc(CNC5CCN(c6ccc7c(c6)C(=O)N(C6CCC(=O)NC6=O)C7=O)CC5)cc4C(F)(F)F)C3=O)c2)COC1` (stereo not drawn) [Example 38, 2-(2,6-dioxopiperidin-3-yl)-5-[4-({[2-(3-{3-[(4-methyl-4H-1,2,4-triazol-3-yl)methyl]oxetan-3-yl}phenyl)-3-oxo-7-(trifluoromethyl)-2,3-dihydro-1H-isoindol-5-yl]methyl}amino)piperidin-1-yl]-2,3-dihydro-1H-isoindole-1,3-dione], which DC50 is on record?
The DC50 was > 500 nM.

How did the DC50 turn out when `Cn1cnnc1CC1(c2cccc(N3Cc4c(cc(CN5CCC6(CC5)CCN(c5ccc7c(c5)C(=O)N(C5CCC(=O)NC5=O)C7=O)CC6)cc4C(F)(F)F)C3=O)c2)COC1` (stereo not drawn) [Example 27, 2-(2,6-dioxopiperidin-3-yl)-5-(9-{[2-(3-{3-[(4-methyl-4H-1,2,4-triazol-3-yl)methyl]oxetan-3-yl}phenyl)-3-oxo-7-(trifluoromethyl)-2,3-dihydro-1H-isoindol-5-yl]methyl}-3,9-diazaspiro[5.5]undecan-3-yl)-2,3-dihydro-1H-isoindole-1,3-dione] was run?
Its DC50 is > 500 nM.

For `Cn1cnnc1CC1(c2cccc(N3Cc4c(cc(CN5CC6(C5)CN(CC5CCN(c7ccc8c(c7)C(=O)N(C7CCC(=O)NC7=O)C8=O)CC5)C6)cc4C(F)(F)F)C3=O)c2)COC1` (stereo not drawn) [Example 68, 2-(2,6-dioxopiperidin-3-yl)-5-{4-[(6-{[2-(3-{3-[(4-methyl-4H-1,2,4-triazol-3-yl)methyl]oxetan-3-yl}phenyl)-3-oxo-7-(trifluoromethyl)-2,3-dihydro-1H-isoindol-5-yl]methyl}-2,6-diazaspiro[3.3]heptan-2-yl)methyl]piperidin-1-yl}-2,3-dihydro-1H-isoindole-1,3-dione], which DC50 is on record?
Its DC50 is > 500 nM.

How did the DC50 turn out when `Cn1cnnc1CC1(c2cccc(-n3cc4ccc(CN5CCN(C[C@H]6CC[C@H](OC7CCN(c8ccc9c(c8F)CN(C8CCC(=O)NC8=O)C9=O)CC7)CC6)CC5)cc4n3)c2)COC1` (stereo partly drawn) [Example 207, 3-[4-fluoro-1-oxo-5-(4-{[(1r,4r)-4-[(4-{[2-(3-{3-[(4-methyl-4H-1,2,4-triazol-3-yl)methyl]oxetan-3-yl}phenyl)-2H-indazol-6-yl]methyl}piperazin-1-yl)methyl]cyclohexyl]oxy}piperidin-1-yl)-2,3-dihydro-1H-isoindol-2-yl]piperidine-2,6-dione] was run?
The DC50 was > 500 nM.

`Cn1cnnc1CC1(c2cccc(N3Cc4c(cc(CN5CCC[C@H](CN6CCN(C[C@H]7CC[C@@H](OC8CCN(c9ccc%10c(c9F)CN(C9CCC(=O)NC9=O)C%10=O)CC8)CC7)CC6(C)C)C5)cc4C(F)(F)F)C3=O)c2)CCC1` (stereo partly drawn) [Example 270, 3-[4-fluoro-1-oxo-5-(4-{[(1r,4r)-4-[(3,3-dimethyl-4-{[(3S)-1-{[2-(3-{1-[(4-methyl-4H-1,2,4-triazol-3-yl)methyl]cyclobutyl}phenyl)-3-oxo-7-(trifluoromethyl)-2,3-dihydro-1H-isoindol-5-yl]methyl}piperidin-3-yl]methyl}piperazin-1-yl)methyl]cyclohexyl]oxy}piperidin-1-yl)-2,3-dihydro-1H-isoindol-2-yl]piperidine-2,6-dione] was tested. Which DC50 did it give?
Its DC50 is < 5 nM.

What about the Dmax of the same compound?
The Dmax was > 70%.

`CC(C)n1c(=O)n(C2CCC(=O)NC2=O)c2ccc(N3CCC(O[C@H]4CC[C@@H](CN5CCN(C[C@H]6CCCN(Cc7cc(C(F)(F)F)c8cn(-c9cccc(C%10(Cc%11nncn%11C)COC%10)c9)nc8c7)C6)CC5)CC4)CC3)cc21` (stereo partly drawn) [Example 268, 3-[2-oxo-3-(propan-2-yl)-5-(4-{[(1r,4r)-4-[(4-{[(3S)-1-{[2-(3-{3-[(4-methyl-4H-1,2,4-triazol-3-yl)methyl]oxetan-3-yl}phenyl)-4-(trifluoromethyl)-2H-indazol-6-yl]methyl}piperidin-3-yl]methyl}piperazin-1-yl)methyl]cyclohexyl]oxy}piperidin-1-yl)-2,3-dihydro-1H-1,3-benzodiazol-1-yl]piperidine-2,6-dione] was tested. Which DC50 did it give?
Its DC50 is < 5 nM.

What about the Dmax of the same compound?
Its Dmax is > 70%.
